The values that follow come from patent US5306712A, “Fungicidal silicon-containing compounds and their agrochemical and medicinal uses” (Sanyo Company, Limited, priority 1991, dated 1994).

In test [1] the test system is Coriolus versicolor (Fungus D). The test is described as follows: Wood-preservative Activity (Antidecay). The note with it: paper disc, 30 μl of 300 ppm acetone solution, 25° C., 5 days.
Procedure: (§1) A fungal disc of about 4 mm diameter was inoculated on an agar medium (2% by weight malt extract, 1% glucose, 0.3% peptone and 2% agar) in a petri dish of diameter 9 cm, by placing the disc on the center of the medium. Paper disc specimens were prepared by impregnating 30 μl of an acetone solution containing 300 ppm of the test compound into the disc (diameter 8 mm, thickness 0.7 mm) and then subjecting it to dry sterilization. The disc specimens were placed in a circle at about 1 cm distance from the fringe of the grown fungus, three days after the inoculation. The specimens were then maintained at 25° C. for 5 days, after which the antifungal activity was determined by visual observation of infection of the specimens by the fungus.
(§2) The procedure described in Experiment 7 was repeated, except that the fungi tested were Coriolus versicolor (Fungus D) and Tyromyces palustris (Fungus E), which are prescribed in JIS A-9201.
Test [2] deals with Tyromyces palustris (Fungus E). The test is described as follows: Wood-preservative Activity (Antidecay). The note with it: paper disc, 30 μl of 300 ppm acetone solution, 25° C., 5 days.
Procedure: as §1, §2
Test [3] deals with Aspergillus niger (Fungus A). The test is described as follows: Antifungal Activity (paper disc on agar). The note with it: 30 μl of 300 ppm acetone solution, 25° C., 5 days.
Procedure: (§3) A fungal disc of about 4 mm diameter was inoculated on an agar medium (2% by weight malt extract, 1% glucose, 0.3% peptone and 2% agar) in a petri dish of diameter 9 cm, by placing the disc on the center of the medium. Paper disc specimens were prepared by impregnating 30 μl of an acetone solution containing 300 ppm of the test compound into the disc (diameter 8 mm, thickness 0.7 mm) and then subjecting it to dry sterilization. The disc specimens were placed in a circle at about 1 cm distance from the fringe of the grown fungus, three days after the inoculation. The specimens were then maintained at 25° C. for 5 days, after which the antifungal activity was determined by visual observation of infection of the specimens by the fungus. The fungi tested were:
Aspergillus niger (Fungus A),
Test [4] relates to Gliocladium virens (Fungus B). The test is described as follows: Antifungal Activity (paper disc on agar). Particulars: 30 μl of 300 ppm acetone solution, 25° C., 5 days.
Procedure: as §3
Gliocladium virens (Fungus B), and
Test [5] relates to Fusarium moliniforme (Fungus C). The test is described as follows: Antifungal Activity (paper disc on agar). Particulars: 30 μl of 300 ppm acetone solution, 25° C., 5 days.
Procedure: as §3
The antifungal activity is indicated by the following ratings:

Regarding `C[Si](C)(C)CC(O)(Cn1cncn1)c1cc(Cl)c(Cl)cc1Cl` (stereo not shown) [Compound 1-65, 1-(1H-1,2,4-Triazol-1-yl)-2-(2,4,5-trichlorophenyl)-3-trimethylsilyl-2-propanol], the “wood-preservative (antidecay) activity, Fungus D” value (“wood-preservative … Fungus D” below) in test [1] is reported as “-”. The “wood-preservative (antidecay) activity, Fungus E” value (from here on “wood-preservative … Fungus E”) in test [2] is “-”. In test [3], the “antifungal activity, Fungus A” value is given as “-”. The “antifungal activity, Fungus B” value in test [4] was “-”. For the same compound, the “antifungal activity, Fungus C” value in test [5] was “+”.

`C[Si](C)(C)CC(O)(Cn1cncn1)c1ccc(Cl)cc1` (stereo not shown) [Compound 1-83, Adduct of 2-(4-chlorophenyl)-1-(1H-1,2,4-triazol-1-yl)-3-trimethylsilyl-2-propanol with saccharin]: the “wood-preservative … Fungus D” value in test [1] is on record as “+”. The “wood-preservative … Fungus E” value in test [2] is “+”. Further, the “antifungal activity, Fungus A” value in test [3] is listed as “-”. Besides, in test [4], the “antifungal activity, Fungus B” value is “+”. Moreover, in test [5], the “antifungal activity, Fungus C” value is given as “+”.

In the case of `C[Si](C)(C)CC(O)(Cn1cncn1)c1ccc(Cl)c(Cl)c1Cl` (stereo not shown) [Compound 1-64, 1-(1H-1,2,4-Triazol-1-yl)-2-(2,3,4-trichlorophenyl)-3-trimethylsilyl-2-propanol], the “wood-preservative … Fungus D” value in test [1] is listed as “-”. The “wood-preservative … Fungus E” value in test [2] is given as “+”. Also, the “antifungal activity, Fungus A” value in test [3] is recorded as “-”. The “antifungal activity, Fungus B” value in test [4] is “-”. Besides, the “antifungal activity, Fungus C” value in test [5] is given as “-”.

With `C[Si](C)(C)CC(O)(Cn1ccnc1)c1ccc(F)cc1F` (stereo not shown) [Compound 1-50, 2-(2,4-Difluorophenyl)-1-(1H-1,3-imidazol-1-yl)-3-trimethylsilyl-2-propanol], in test [1], the “wood-preservative … Fungus D” value was “+”. Also, the “wood-preservative … Fungus E” value in test [2] was “-”. Besides, the “antifungal activity, Fungus A” value in test [3] is “-”. Further, the “antifungal activity, Fungus B” value in test [4] is on record as “-”. Further, the “antifungal activity, Fungus C” value in test [5] is given as “+”.

`C[Si](C)(C)CC(O)(Cn1cncn1)c1ccc(Cl)c(Cl)c1` (stereo not shown) [Compound 1-29, 2-(3,4-Dichlorophenyl)-1-(1H-1,2,4-triazol-1-yl)-3-trimethylsilyl-2-propanol]: in test [1], the “wood-preservative … Fungus D” value is on record as “-”. Also, the “wood-preservative … Fungus E” value in test [2] is on record as “-”. Also, the “antifungal activity, Fungus A” value in test [3] is “-”. Also, the “antifungal activity, Fungus B” value in test [4] is “-”. Also, the “antifungal activity, Fungus C” value in test [5] was “+”.

With `C[Si](C)(CC(O)(Cn1cncn1)c1ccc(F)cc1)c1ccc(Cl)cc1` (stereo not shown) [Compound 1-69, 3-[(4-Chlorophenyl)dimethylsilyl]-2-(4-fluorophenyl)-1-(1H-1,2,4-triazol-1-yl)-2-propanol], the “wood-preservative … Fungus D” value in test [1] is “+”. Further, in test [2], the “wood-preservative … Fungus E” value is listed as “-”. The “antifungal activity, Fungus A” value in test [3] is reported as “-”. Also, the “antifungal activity, Fungus B” value in test [4] was “-”. The “antifungal activity, Fungus C” value in test [5] was “+”.

Consider `C[Si](C)(C)CC(O)(Cn1cncn1)c1ccccc1Cl` (stereo not shown) [Compound 1-16, 2-(2-Chlorophenyl)-1-(1H-1,2,4-triazol-1-yl)-3-trimethylsilyl-2-propanol], for which the “wood-preservative … Fungus D” value in test [1] was “+”. Also, in test [2], the “wood-preservative … Fungus E” value is on record as “+”. Moreover, in test [3], the “antifungal activity, Fungus A” value is on record as “+”. Further, the “antifungal activity, Fungus B” value in test [4] was “+”. Moreover, in test [5], the “antifungal activity, Fungus C” value is “+”.

Turning to `C[Si](C)(C)CC(O)(Cn1cncn1)c1ccc(F)cc1` (stereo not shown) [Compound 1-78, Adduct of 2-(4-fluorophenyl)-1-(1H1,2,4-triazol-1-yl)-3-trimethylsilyl-2-propanol with saccharin], in test [1], the “wood-preservative … Fungus D” value is recorded as “+”. In addition, the “wood-preservative … Fungus E” value in test [2] is “+”. For the same compound, the “antifungal activity, Fungus A” value in test [3] is recorded as “-”. In addition, the “antifungal activity, Fungus B” value in test [4] is “+”. The “antifungal activity, Fungus C” value in test [5] is “+”.

Turning to `C[Si](C)(C)CC(O)(Cn1cncn1)c1ccc(Cl)cc1Cl` (stereo not shown) [Compound 1-11, 2-(2,4-Dichlorophenyl)-1-(1H-1,2,4-triazol-1-yl)-3-trimethysilyl-2-propanol], the “wood-preservative … Fungus D” value in test [1] was “+”. For the same compound, in test [2], the “wood-preservative … Fungus E” value is recorded as “+”. The “antifungal activity, Fungus A” value in test [3] is recorded as “+”. The “antifungal activity, Fungus B” value in test [4] is “+”. The “antifungal activity, Fungus C” value in test [5] was “+”.

With `Cc1ccc(C(O)(Cn2cncn2)C[Si](C)(C)C)cc1` (stereo not shown) [Compound 1-5, 2-(4-Methylphenyl)-1-(1H-1,2,4-triazol-1-yl)-3-trimethylsilyl-2-propanol], in test [1], the “wood-preservative … Fungus D” value is given as “+”. Also, in test [2], the “wood-preservative … Fungus E” value is “+”. Moreover, the “antifungal activity, Fungus A” value in test [3] is on record as “+”. Further, in test [4], the “antifungal activity, Fungus B” value is reported as “+”. In addition, in test [5], the “antifungal activity, Fungus C” value is “+”.

`C[Si](C)(C)CC(O)(Cn1cncn1)c1ccc(Br)cc1` (stereo not shown) [Compound 1-4, 2-(4-Bromophenyl)-1-(1H-1,2,4-triazol-1-yl)-3-trimethylsilyl-2-propanol]: in test [1], the “wood-preservative … Fungus D” value is recorded as “+”. Also, in test [2], the “wood-preservative … Fungus E” value is “+”. Moreover, in test [3], the “antifungal activity, Fungus A” value is “+”. In test [4], the “antifungal activity, Fungus B” value is on record as “+”. For the same compound, the “antifungal activity, Fungus C” value in test [5] is given as “+”.

With `C[Si](C)(C)CC(O)(Cn1cncn1)c1ccccc1` (stereo not shown) [Compound 1-1, 2-Phenyl-1-(1H-1,2,4-triazol-1-yl)-3-trimethylsilyl-2-propanol], the “wood-preservative … Fungus D” value in test [1] is “+”. In addition, the “wood-preservative … Fungus E” value in test [2] is reported as “+”. Besides, the “antifungal activity, Fungus A” value in test [3] was “+”. Also, the “antifungal activity, Fungus B” value in test [4] is reported as “-”. In addition, the “antifungal activity, Fungus C” value in test [5] is given as “+”.

Regarding `CC[Si](C)(C)CC(O)(Cn1cncn1)c1ccc(F)cc1` (stereo not shown) [Compound 1-70, 3-Dimethylethylsilyl-2-(4-fluorophenyl)-1-(1H-1,2,4-triazol-1-yl)-2-propanol], the “wood-preservative … Fungus D” value in test [1] is on record as “+”. Also, the “wood-preservative … Fungus E” value in test [2] is “+”. Also, the “antifungal activity, Fungus A” value in test [3] is on record as “-”. Moreover, in test [4], the “antifungal activity, Fungus B” value is recorded as “+”. Also, the “antifungal activity, Fungus C” value in test [5] was “+”.

For the compound `C[Si](C)(C)CC(O)(Cn1cncn1)c1ccccc1F` (stereo not shown) [Compound 1-17, 2-(2-Fluorophenyl)-1-(1H-1,2,4-triazol-1-yl)-3-trimethylsilyl-2-propanol], the “wood-preservative … Fungus D” value in test [1] was “+”. Moreover, the “wood-preservative … Fungus E” value in test [2] is “+”. The “antifungal activity, Fungus A” value in test [3] is recorded as “+”. Further, in test [4], the “antifungal activity, Fungus B” value was “+”. In addition, the “antifungal activity, Fungus C” value in test [5] is given as “+”.

Regarding `C[Si](C)(C)CC(O)(Cn1cncn1)c1ccc(Cl)cc1F` (stereo not shown) [Compound 1-14, 2-(4-Chloro-2-fluorophenyl)-1-(1H-1,2,4-triazol-1-yl)-3-trimethylsilyl-2-propanol], the “wood-preservative … Fungus D” value in test [1] is “+”. Moreover, the “wood-preservative … Fungus E” value in test [2] is given as “+”. Besides, the “antifungal activity, Fungus A” value in test [3] is “+”. Besides, in test [4], the “antifungal activity, Fungus B” value is given as “+”. Moreover, in test [5], the “antifungal activity, Fungus C” value is “+”.

`C[Si](C)(C)CC(O)(Cn1cncn1)c1ccc(C(F)(F)F)cc1` (stereo not shown) [Compound 1-6, 1-(1H-1,2,4-Triazol-1-yl)-2-(4-trifluoromethylphenyl)-3-trimethylsilyl-2-propanol]: in test [1], the “wood-preservative … Fungus D” value is reported as “+”. The “wood-preservative … Fungus E” value in test [2] was “+”. In addition, the “antifungal activity, Fungus A” value in test [3] is given as “+”. The “antifungal activity, Fungus B” value in test [4] is “-”. The “antifungal activity, Fungus C” value in test [5] was “+”.

Regarding `C[Si](C)(C)CC(O)(Cn1ccnc1)c1ccc(Cl)cc1Cl` (stereo not shown) [Compound 1-49, 2-(2,4-Dichlorophenyl)-1-(1H-1,3-imidazol-1-yl)-3-trimethylsilyl-2-propanol], in test [1], the “wood-preservative … Fungus D” value is “+”. The “wood-preservative … Fungus E” value in test [2] is “-”. Further, the “antifungal activity, Fungus A” value in test [3] is recorded as “-”. Besides, in test [4], the “antifungal activity, Fungus B” value is listed as “-”. Further, the “antifungal activity, Fungus C” value in test [5] was “-”.
